Data as given in PMC4673163, “Natural paniceins from mediterranean sponge inhibit the multidrug resistance activity of Patched and increase chemotherapy efficiency on melanoma cells” (Oncotarget, 2015).

Molecular target: T1, human Patched (Patched 1; hPatched-MAP) (Homo sapiens, UniProt Q13635)
T1 construct: gene PTCH1; human Patched with MAP tag from pYEP-hPatched-MAP, expressed in Saccharomyces cerevisiae K699; whole yeast, not purified
T1 sequence (Q13635 1-1447): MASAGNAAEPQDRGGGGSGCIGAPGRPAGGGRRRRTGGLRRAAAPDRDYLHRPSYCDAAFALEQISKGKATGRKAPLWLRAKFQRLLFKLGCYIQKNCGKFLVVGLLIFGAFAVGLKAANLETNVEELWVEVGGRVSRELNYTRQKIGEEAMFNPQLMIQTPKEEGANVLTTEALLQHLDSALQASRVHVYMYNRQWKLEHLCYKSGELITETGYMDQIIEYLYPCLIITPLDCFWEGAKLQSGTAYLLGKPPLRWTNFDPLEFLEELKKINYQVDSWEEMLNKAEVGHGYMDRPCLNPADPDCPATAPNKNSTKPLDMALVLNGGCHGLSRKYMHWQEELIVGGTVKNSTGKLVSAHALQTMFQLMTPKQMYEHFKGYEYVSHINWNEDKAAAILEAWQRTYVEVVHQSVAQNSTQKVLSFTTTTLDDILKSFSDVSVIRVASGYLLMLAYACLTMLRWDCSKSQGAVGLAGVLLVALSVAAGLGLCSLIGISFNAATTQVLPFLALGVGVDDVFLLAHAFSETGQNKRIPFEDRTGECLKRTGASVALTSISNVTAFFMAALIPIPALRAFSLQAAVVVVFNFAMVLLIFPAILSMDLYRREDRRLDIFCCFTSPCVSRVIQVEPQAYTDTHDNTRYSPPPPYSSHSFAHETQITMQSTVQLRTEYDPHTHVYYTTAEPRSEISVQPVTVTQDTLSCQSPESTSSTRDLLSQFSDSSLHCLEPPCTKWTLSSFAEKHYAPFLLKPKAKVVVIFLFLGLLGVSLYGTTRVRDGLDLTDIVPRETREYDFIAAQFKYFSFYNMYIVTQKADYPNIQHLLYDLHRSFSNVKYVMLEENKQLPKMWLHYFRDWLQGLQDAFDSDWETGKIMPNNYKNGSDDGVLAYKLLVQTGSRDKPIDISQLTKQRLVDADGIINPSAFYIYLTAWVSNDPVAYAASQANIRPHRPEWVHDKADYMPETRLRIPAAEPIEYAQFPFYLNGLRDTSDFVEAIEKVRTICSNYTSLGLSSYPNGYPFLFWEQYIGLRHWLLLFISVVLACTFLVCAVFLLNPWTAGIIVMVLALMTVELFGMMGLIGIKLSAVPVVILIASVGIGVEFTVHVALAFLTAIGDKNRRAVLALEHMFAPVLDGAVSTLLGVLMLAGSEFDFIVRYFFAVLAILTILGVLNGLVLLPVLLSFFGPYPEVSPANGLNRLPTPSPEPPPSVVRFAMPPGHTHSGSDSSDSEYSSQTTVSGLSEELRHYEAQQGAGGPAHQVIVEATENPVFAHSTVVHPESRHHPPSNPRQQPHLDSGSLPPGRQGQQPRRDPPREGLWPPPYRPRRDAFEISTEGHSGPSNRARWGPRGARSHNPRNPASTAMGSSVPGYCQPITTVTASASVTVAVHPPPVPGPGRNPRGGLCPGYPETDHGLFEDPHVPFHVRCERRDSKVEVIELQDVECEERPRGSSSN
Assay: doxorubicin efflux from de-energized yeast, fluorescence microscopy
Type: cell-based
Conditions: read-out: % inhibition of dxr efflux at 10 μM

- inhibition at 10 µM: ~40%
SMILES: COc1cc(C)c(CC/C(C)=C/Cc2cc(O)ccc2O)c(C)c1C [compound 1, panicein A hydroquinone]
